The structures appear in SMILES notation.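 A five-concentration, 48-hour dose response in 96-well plates underlies each endpoint, interpolated linearly between surrounding concentrations. GI50 = concentration required for 50% inhibition of growth. At the TGI there is no net growth.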

Some test systems named below: K-562 leukemia; DU-145 prostate; SNB-75 CNS; UO-31 renal; SK-MEL-5 melanoma; HL-60(TB) leukemia; CCRF-CEM leukemia; ACHN renal; M14 melanoma; HCT-15 colon.
Assay in all cases: NCI-60 cell line screen, 48 h

For `COc1cc2cc(Oc3ccc(NC(=O)Nc4ccc(F)c(C(F)(F)F)c4)cc3)c(C)nc2cc1OCCN1CCCCC1`, the GI50 in the assay with K-562 leukemia was 1.29 µM; in the assay with DU-145 prostate it was 1.75 µM; in the assay on SNB-75 CNS, 1.33 µM; in the assay with UO-31 renal it was 1.41 µM; with SK-MEL-5 melanoma, 1.7 µM; with HL-60(TB) leukemia, 1910 nM. Moreover, the GI50 with CCRF-CEM leukemia is 1570 nM; in the assay on ACHN renal, 1.65 µM; with M14 melanoma, 1.81 µM. The TGI was determined as 3.79 µM in the assay with K-562 leukemia; 3.2 µM with DU-145 prostate; 2.6 µM in the assay on SNB-75 CNS; 2.73 µM with UO-31 renal; 3.09 µM with SK-MEL-5 melanoma; 3.81 µM in the assay on HL-60(TB) leukemia. Moreover, the TGI turned out to be 4.01 µM with CCRF-CEM leukemia, 3.01 µM in the assay on ACHN renal and 3.53 µM in the assay with M14 melanoma.
In the case of `CCOC(=O)c1ncoc1[C@H]1COC(C)(C)O1`, the TGI with K-562 leukemia, with SNB-75 CNS, in the assay on UO-31 renal, with SK-MEL-5 melanoma, in the assay on HL-60(TB) leukemia and with CCRF-CEM leukemia was > 100 µM each time. Also, the TGI in the assay on ACHN renal, in the assay with HCT-15 colon and in the assay with M14 melanoma was > 100 µM in each case.
On to `O=C(c1ccccc1)c1nn(-c2ccc(Cl)cc2)c2nc3nc(-c4ccccc4)cc(=O)n3nc12`, for which the GI50 with K-562 leukemia was 50.1 µM; in the assay with DU-145 prostate it was 30.7 µM; in the assay with SNB-75 CNS it was 28.8 µM; in the assay on UO-31 renal it was 25.7 µM; in the assay with SK-MEL-5 melanoma, 20.4 µM; with HL-60(TB) leukemia, 3480 nM. Besides, the GI50 in the assay with CCRF-CEM leukemia is 3580 nM; in the assay on ACHN renal it was 37.4 µM; with HCT-15 colon, 38.2 µM; in the assay with M14 melanoma, 31.6 µM. The TGI was > 100 µM in the assay with K-562 leukemia; > 100 µM in the assay with DU-145 prostate; 97.9 µM in the assay with SNB-75 CNS; > 100 µM in the assay with UO-31 renal; 51.9 µM in the assay on SK-MEL-5 melanoma; 14.8 µM in the assay on HL-60(TB) leukemia. Further, the TGI with CCRF-CEM leukemia, in the assay on ACHN renal, with HCT-15 colon and in the assay on M14 melanoma was > 100 µM in each case.
